Measured values as given in US7084141B2, “Inhibitors of macrophase migration inhibitory factor and methods for identifying the same” (Avanir Pharmaceuticals, priority 2001, dated 2006).

Target: T1, MIF produced by THP-1 cells (Homo sapiens, UniProt P14174)
T1 construct: a test cell may express the MIF naturally (e.g., THP-1 cells); endogenous in cells; host or cells: THP-1 cells stimulated with LPS
T1 sequence (P14174 2-115 limits assumed): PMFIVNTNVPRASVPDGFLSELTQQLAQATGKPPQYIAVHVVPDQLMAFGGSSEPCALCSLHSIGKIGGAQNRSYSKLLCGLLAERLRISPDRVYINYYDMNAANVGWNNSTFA
Test: ELISA of immunoreactive MIF from LPS stimulated THP-1 cells treated with compound
Type: cell-based
Conditions: LPS stimulated THP-1 cells, incubated overnight; read-out: ED50, inhibition of the ability of the antibody to recognize MIF (ELISA)
Protocol: Alternatively, ELISA may be preferred to detect and quantify the amount of MIF in cell supernatants. ELISA is preferred for detection in high throughput screening. Briefly, 96-well plates are coated with an anti-MIF antibody or anti-tag antibody, washed, and blocked with 2% BSA. Cell supernatant is then added to the wells. Following incubation and washing, a second antibody (e.g., to MIF) is added. The second antibody may be coupled to a label or detecting reagent, such as an enzyme or to biotin. Following further incubation, a developing reagent is added and the amount of MIF determined using an ELISA plate reader. The developing reagent is a substrate for the enzyme coupled to the second antibody (typically an anti-isotype antibody) or for the enzyme coupled to streptavidin. Suitable enzymes are well known in the art and include horseradish peroxidase, which acts upon a substrate (e.g., ABTS) resulting in a colorimetric reaction. It is recognized that rather than using a second antibody coupled to an enzyme, the anti-MIF antibody may be directly coupled to the horseradish peroxidase, or other equivalent detection reagent. If desired, cell supernatants may be concentrated to raise the detection level. Further, detection methods, such as ELISA and the like may be employed to monitor intracellular as well as extracellular levels of MIF. When intracellular levels are desired, a cell lysate is preferred. When extracellular levels are desired, media can be screened.
In another experiment (FIG. 2), varying concentrations of five different inhibitor analogs were added to LPS stimulated THP-1 cells and allowed to incubate overnight. The following day the amount of immunoreactive MIF detected was evaluated by ELISA. Compound 7e inhibited the ability of the antibody to recognize MIF in a dose dependent fashion with an ED50 of 2 μM, similar to the response obtained with analogs compound 7b and compound 7d.
In a further experiment (FIG. 3), the ability of compound 7e to decrease the immunoreactivity of MIF produced by THP-1 cells was determined. THP-1 cells were treated with 10 μg/ml of LPS and 10 μM of compound 7e was added at various times post-LPS stimulation and immunoreactivity monitored with an anti-MIF monoclonal. […] Thus, this experiment measures the activity of compounds or buffer alone controls on MIF detection when the compounds are initially added at various times to cell cultures and then the corresponding conditioned media samples are processed in a time dependent fashion thereafter.

EC50 [nM] | SMILES
~2000 | Cn1c(=O)c([N+](=O)[O-])c(N2CCN(C(=O)c3ccccc3)CC2)c2ccccc21 [compound 7b]
~2000 | CCOC(=O)c1c(N2CCN(C(=O)c3ccccc3)CC2)c2ccccc2n(C)c1=O [compound 7d]
